Results taken from patent publication EP4793271A1, “NEUROPROTECTIVE AGENT” (National Center of Neurology and Psychiatry, priority 2023, dated 2025).
Read-outs that look alike come from different tables or passages of the source.

Assays:
[1] = system: primary cultured cells of mouse fetus-derived dorsal root ganglia (DRGs); assay: Suppression of axonal degeneration after axotomy in DRG explant culture; assay type: cell-based; conditions: minimum concentration at which axonal degeneration was suppressed (DI 0.3 or less), 24 hours after axotomy; for minimal effective concentration: Mus musculus, read-out: Evaluation on protection against degeneration
In short: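 Embryonic ICR mouse DRG explants were cultured 7–8 days in nicotinamide-free neuronal medium with NGF, then axotomized by removing the cell bodies. Compound (100 pM–10 µM final, 0.1% DMSO) was added within 30 min, and neurites were imaged 24 h later. The result is the lowest concentration giving degeneration index ≤0.3.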

[2] = target: T1, nicotinamide phosphoribosyl transferase (NAMPT) (Homo sapiens, UniProt P43490); assay: NAMPT activity measurement (NMN fluorescence detection); assay type: biochemical; conditions: NAMPT recombinant protein, 10 µM Nam; for IC50: read-out: Evaluation on NAMPT inhibitory
T1 construct: purchased Medical & Biological Laboratories Co., Ltd. (MBL)
In short: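 Recombinant NAMPT reacted with 10 µM Nam, 0.5 µM PRPP, 2 µM ATP in Tris pH 7.4 buffer with MgCl2, DTT, BSA; product NMN quantified by fluorescence (ex 421/em 480 nm) after derivatization with 2-acetylbenzofuran. Compounds at 3 nM–10 µM; control-normalized signal used for IC50.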

[3] = target: T2, hSARM1 (Homo sapiens, UniProt Q6SZW1); assay: Human SARM1 activity measurement in HEK293 cells transiently transfected with ΔN-hSARM1 (PC6 fluorescent probe); assay type: cell-based; parameters: expressed in transfected cells; host or cells: HEK293, pcDNA3 expression vector
T2 sequence (Q6SZW1 28-724): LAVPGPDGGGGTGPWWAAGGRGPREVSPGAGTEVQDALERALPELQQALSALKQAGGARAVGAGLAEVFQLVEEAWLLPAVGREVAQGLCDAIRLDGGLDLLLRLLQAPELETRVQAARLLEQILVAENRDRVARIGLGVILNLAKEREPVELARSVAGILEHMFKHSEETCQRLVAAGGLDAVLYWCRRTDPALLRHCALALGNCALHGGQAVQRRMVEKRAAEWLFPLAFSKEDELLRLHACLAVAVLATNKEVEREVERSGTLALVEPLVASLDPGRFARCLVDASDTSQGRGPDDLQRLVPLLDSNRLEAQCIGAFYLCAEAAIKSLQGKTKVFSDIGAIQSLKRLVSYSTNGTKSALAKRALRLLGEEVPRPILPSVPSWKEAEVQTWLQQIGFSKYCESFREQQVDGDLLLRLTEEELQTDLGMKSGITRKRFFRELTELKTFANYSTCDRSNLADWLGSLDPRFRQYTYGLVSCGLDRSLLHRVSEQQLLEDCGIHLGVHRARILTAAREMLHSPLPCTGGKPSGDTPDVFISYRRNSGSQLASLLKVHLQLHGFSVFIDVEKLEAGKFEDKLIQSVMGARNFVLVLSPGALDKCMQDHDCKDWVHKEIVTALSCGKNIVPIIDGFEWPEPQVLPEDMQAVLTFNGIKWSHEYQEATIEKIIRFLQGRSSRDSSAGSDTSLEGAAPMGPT
In short: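 HEK293 cells in nicotinamide-free DMEM with 5 μM nicotinamide, transiently transfected with mitochondrial-targeting-deleted ΔN-hSARM1; PC6 base-exchange fluorescent probe (50 μM) plus compound (30 μM) added ~8 h post-transfection. Fluorescence (ex 405/em 525 nm) read ~48 h from transfection; inhibition % versus transfected DMSO control, untransfected background subtracted.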

[4] = inhibition rate, compound 30 µM, PC6 50 µM, HEK293 cells expressing ΔN-hSARM1, approximately 48 hours from transfection, read-out: Evaluation on hSARM1 inhibitory

T1 sequence (P43490 whole entry, species assumed): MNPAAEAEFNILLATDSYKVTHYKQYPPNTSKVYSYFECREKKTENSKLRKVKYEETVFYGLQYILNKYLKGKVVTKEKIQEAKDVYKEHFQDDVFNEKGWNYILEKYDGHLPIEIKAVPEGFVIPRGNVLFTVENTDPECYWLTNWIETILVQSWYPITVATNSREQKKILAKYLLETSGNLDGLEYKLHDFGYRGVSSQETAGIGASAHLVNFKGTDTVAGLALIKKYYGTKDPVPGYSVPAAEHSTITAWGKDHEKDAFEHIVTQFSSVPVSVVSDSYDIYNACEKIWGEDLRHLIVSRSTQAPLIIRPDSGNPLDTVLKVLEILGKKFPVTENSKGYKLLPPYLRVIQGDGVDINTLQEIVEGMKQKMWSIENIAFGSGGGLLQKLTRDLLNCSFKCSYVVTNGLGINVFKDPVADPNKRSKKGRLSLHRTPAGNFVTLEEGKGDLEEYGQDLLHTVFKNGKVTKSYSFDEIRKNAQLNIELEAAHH

| Compound | Evaluation on protection against degeneration [1] | Evaluation on NAMPT inhibitory [2] | inhibition at 30 µM [3, 4] [%] | minimal effective concentration [1] [µM] | IC50 [2] [nM] | inhibition at 30 µM ([3]; HEK293, read-out: Evaluation on hSARM1 inhibitory) [%] |
| --- | --- | --- | --- | --- | --- | --- |
| O=C(NCc1ccc(NC(=O)c2ccccc2OC(F)(F)F)nc1)c1cccnc1 [compound 85] | B (0.01 µM < B ≤ 0.1 µM) | ○ | > 75 |  |  |  |
| N#Cc1ccc(OCC(=O)Nc2ccc(CNC(=O)c3cccnc3)cn2)cc1 [Compound 174] |  |  | > 75 | 0.01 to 0.1 | ≥ 100 |  |
| CC(=O)NCc1ccc(OCCOCCNC(=O)/C=C/c2cccnc2)cc1 [compound 22] |  |  | > 75 | ≤ 0.01 | ≥ 100 |  |
| O=C(/C=C/c1cccnc1)NCCCNC(=O)/C=C/c1cccnc1 [compound 39] |  | ○ | > 75 | ≤ 0.01 |  |  |
| O=C(COc1cccc(C(F)(F)F)c1)Nc1ccc(CNC(=O)c2cccnc2)cn1 [Compound 175] |  |  | > 75 | 0.01 to 0.1 | ≥ 100 |  |
| CCCCC(=O)Nc1ccc(CNC(=O)c2cccnc2)cn1 [Compound 159] |  | ○ | > 50 | ≤ 0.01 |  |  |
| O=C(NCc1ccc(NC(=O)c2cc(F)cc(C(F)(F)F)c2)nc1)c1cccnc1 [compound 84] |  |  | > 75 | 0.01 to 0.1 | ≥ 100 |  |
| O=C(NCc1ccc(NC(=O)c2cc(F)cc(F)c2)nc1)c1cccnc1 [Compound 138] |  | ○ | > 75 | ≤ 0.01 |  |  |
| O=C(NCc1ccc(NC(=O)c2cccc(C(F)(F)F)c2)nc1)c1cccnc1 [compound 82] |  | ○ | > 75 | ≤ 0.01 |  |  |
| C=Cc1ccc(C(=O)Nc2ccc(CNC(=O)c3cccnc3)cn2)cc1 [compound 80] |  |  | > 75 | ≤ 0.01 | ≥ 100 |  |
| NCCOCCCCCCCCNC(=O)c1cccnc1 [compound 96] |  |  | > 75 | ≤ 0.01 | ≥ 100 |  |
| O=C(NCc1cccc(CNC(=O)c2cccnc2)n1)c1cccnc1 [Compound 150] |  | ○ | > 25 | 0.1 to 1 |  |  |
| O=C(NCc1ccc(NC(=O)c2ccc(C(F)(F)F)cc2)nc1)c1cccnc1 [compound 83] |  | ○ | > 50 | ≤ 0.01 |  |  |
| O=C(NCc1ccc(NC(=O)c2ccccc2)c(F)c1)c1cccnc1 [compound 110] | A (A ≤ 0.01 µM) | ○ |  |  |  | > 25 |
| O=C(NCCCCCCCCOCCOCCO)c1cccnc1 [compound 6] |  |  | > 75 | ≤ 0.01 | ≥ 100 |  |
| O=C(CCc1ccccc1)NCc1ccc(CNC(=O)c2cccnc2)cc1 [compound 65] |  | ○ | > 75 | ≤ 0.01 |  |  |
| O=C(NCCCOCCOCCCNC(=O)c1ccc2ccccc2c1)c1cccnc1 [Compound 187] | C (0.1 µM < C ≤ 1 µM) | ○ | > 25 |  |  |  |
| O=C(/C=C/c1cccnc1)NCc1cccc(NC(=O)/C=C/c2cccnc2)c1 [compound 61] |  |  | > 75 | ≤ 0.01 | ≥ 100 |  |
| CCC(C)CC(=O)Nc1ccc(CNC(=O)c2cccnc2)cn1 (stereo not drawn) [Compound 165] |  | ○ | > 75 | ≤ 0.01 |  |  |
| O=C(/C=C/c1cccnc1)NCCOCCOc1ccccc1 [compound 17] |  |  | > 75 | ≤ 0.01 | ≥ 100 |  |
| O=C(NCc1ccc(NC(=O)c2ccccc2C(F)(F)F)nc1)c1cccnc1 [compound 81] |  | ○ | > 50 | 0.01 to 0.1 |  |  |
| O=C(NCc1cccc(CNC(=O)c2cccnc2)n1)c1ccncc1 [Compound 151] |  | ○ | > 25 | 0.1 to 1 |  |  |
